Entries after “also recorded” stand apart in the source; their conditions may differ.
Tests used:
[1] = test system: reticulocyte hemoglobin content; experiment: Reticulocyte hemoglobin content in healthy volunteers (MAD); assay type: in vivo, human
Method: (§1) Participants in Part 2, Cohorts 1 through 3, received a daily oral dose of the compound of Formula I-11 (50, 100, or 200 mg liquid formulation respectively) or placebo for 7 days. A daily oral dose of the compound of Formula I-11 or placebo in participants in Part 2, Cohort 4 (350 mg liquid formulation) was planned for 14 days but was discontinued early in all subjects, either by the Investigator because of AEs, or by the Sponsor. A decision was made by the Sponsor to discontinue dosing of the entire cohort based on the frequency of AEs and laboratory abnormalities after Day 9. In Cohort 4, participants on the compound of Formula I-11 received daily oral dosing of 350 mg for up to 7 days; one placebo participant received daily oral dosing for 9 days. Samples were collected for determination of pharmacodynamic parameters at pre-dose daily and to 24 hours post dose (day 8) while on drug. Daily trough PK samples were collected for the determination of steady-state from Day 2 to Day 12 or 13. Participants returned to the site on Day 30 for an end-of-study visit. Safety was evaluated by a Safety Review Committee prior to escalation to the next dose level cohort.
(§2) Pharmacodynamic endpoints: Protocol-specified endpoints were assessed at baseline and regularly throughout the study period. These assessments included measurements of serum iron, transferrin saturation (calculated as serum iron/total iron-binding capacity), serum ferritin, serum hepcidin, and reticulocyte hemoglobin content. Measurements of all pharmacodynamic end points were made using standard clinical laboratory tests. Hepcidin analysis was performed using an ELISA kit from Intrinsic LifeSciences (Intrinsic Hepcidin IDx™ ELISA kit).

[2] = test system: transferrin saturation; experiment: Transferrin saturation (TSAT) in healthy volunteers; assay type: in vivo, human
Method: (§3) Participants in Part 1 received a single oral dose of the compound of Formula I-11 or placebo on Day 1 and serial PK samples were collected. Baseline assessments were performed on day −1 prior to dosing. Samples were collected for determination of pharmacodynamic parameters at pre-dose daily and up to 24 hours post dose (day 2) after a single oral dose of the compound of Formula I-11. Participants remained at the study site for observation for 24 hours post-dose through the PK sample collection on Day 2. Participants returned to the site for the 48, 72, and 120-hour post-dose sample collection on Days 3, 4, and 6. Safety was evaluated by a Safety Review Committee prior to escalation to the next dose level cohort.
as §1, §2

[3] = Phase 1 SAD/MAD study in healthy volunteers: pharmacokinetics; assay type: in vivo, human
Description: (§4) The primary objectives of this study were to a) evaluate safety and tolerability of escalating doses of the compound of Formula I-11 administered as single and multiple oral doses in healthy male volunteers and healthy postmenopausal female volunteers and b) evaluate the PK parameters following escalating doses of the compound of Formula I-11 administered as single and multiple oral doses. The secondary objective of this study was to evaluate the pharmacodynamic (PD) parameters following escalating doses of the compound of Formula I-11 administered as single and multiple oral doses. This study was conducted in two parts.
as §3, with “Participants remained at the study site for observation for 24 hours post-dose through the PK sample collection on Day 2. Participants returned to the site for the 48, 72, and 120-hour post-dose sample collection on Days 3, 4, and 6.” left out
Participants in Part 2, Cohorts 1 through 3, received a daily oral dose of the compound of Formula I-11 (50, 100, or 200 mg liquid formulation respectively) or placebo for 7 days. […] Safety was evaluated by a Safety Review Committee prior to escalation to the next dose level cohort. […]

[4] = test system: lymphocytes; experiment: Lymphocyte counts in healthy volunteers (MAD); assay type: in vivo, human
Method: as §1

[5] = test system: serum hepcidin; experiment: Serum hepcidin in healthy volunteers (Intrinsic Hepcidin IDx ELISA); assay type: in vivo, human
Method: as §1, with “Daily trough PK samples were collected for the determination of steady-state from Day 2 to Day 12 or 13. Participants returned to the site on Day 30 for an end-of-study visit.” left out, “cohort. […]” for “cohort.”
(§5) Pharmacodynamic endpoints: Protocol-specified endpoints were assessed at baseline and regularly throughout the study period. These assessments included measurements of serum iron, transferrin saturation (calculated as serum iron/total iron-binding capacity), serum ferritin, serum hepcidin, and reticulocyte hemoglobin content. […]

[6] = Phase 1 SAD/MAD study in healthy volunteers: safety and tolerability; assay type: in vivo, human; details: for dose level up to which well tolerated: healthy participants
Description: A total of 131 healthy, males aged 18 to 60 years and post-menopausal females aged 45 to 60 years, participated in this study.
as §4
Part 1 included 80 participants (10 cohorts of 8 participants each). Male and female participants who met the eligibility criteria were randomly assigned, in a ratio of 3:1 to receive the compound of Formula I-11 or matching placebo, N=6 and 2 per dose cohort, respectively. Participant enrollment included […] males and 12.5% females (postmenopausal). The IMP formulation used in Cohorts 1 through 6 was an oral capsule (doses of 1, 3, 10, 30, 100, or 300 mg capsule formulation). An oral liquid formulation was evaluated in Cohorts 7 through 10 (doses of 30, 100, 300 or 450 mg liquid formulation).
as §3
Part 2, Cohorts 1 through 4, included 41 participants (4 cohorts of 10 participants each and 1 additional placebo participant in Cohort 1). Male and female participants who met the eligibility criteria were randomly assigned at a ratio of 4:1 to receive either the compound of Formula I-11 oral liquid formulation or matching placebo, N=8 and 2 per dose cohort respectively. Forty (97.6%) males and 1 (2.4%) female (placebo) participant were enrolled.
as §1
Part 2, MAD Cohort 5 (C5) participants received either the compound of Formula I-11, 100 mg (n=8) or placebo (n=2) on Days 1, 2, 3, 4, 5, 6, 7. The last dose was administered on the morning of Day 7. […]

[7] = test system: serum ferritin; experiment: Serum ferritin in healthy volunteers; assay type: in vivo, human
Method: as §3
Participants in Part 2, Cohorts 1 through 3, received a daily oral dose of the compound of Formula I-11 (50, 100, or 200 mg liquid formulation respectively) or placebo for 7 days. […] Safety was evaluated by a Safety Review Committee prior to escalation to the next dose level cohort.
as §5

[8] = test system: serum iron; experiment: Serum iron in healthy volunteers; assay type: in vivo, human
Method: as §3, §1, §2

[9] = test system: serum iron; experiment: Time course of serum iron in wild-type mice (bathophenanthroline disulfonate method); assay type: in vivo, C57BI/6 mice; details: 5 mg/kg gavage once daily
Method: (§6) To assess the effect of the compound of Formula I-42, a small molecule selective ALK2 kinase inhibitor, on hepcidin and serum iron, a time course experiment was conducted. For time course analysis, female C57BI/6 mice were gavaged once daily with either the compound of Formula I-42 (5 mg/kg), or vehicle. On the third treatment day, ten mice from each dosing group were euthanized 4, 6, 8, 12, 16, or 24 hours post-dosing. Blood was sampled and serum extracted. The mature form of hepcidin (hepcidin 25) was measured in serum with the use of a commercial ELISA (Intrinsic LifeSciences, CA) as per the manufacturer's instructions. Serum iron levels were determined with the use of a commercial assay that was based on the standard bathophenanthroline disulfonate method (BioAssay Systems, CA) as per the manufacturer's instructions. […] Data are shown as the average±SEM.

[10] = test system: hepcidin 25; experiment: Time course of serum hepcidin in wild-type mice (ELISA); assay type: in vivo, C57BI/6 mice; details: 5 mg/kg gavage once daily, third treatment day
Method: as §6

[11] = test system: liver iron content; experiment: Liver iron content in iron dextran mouse model of iron overload, first assay (30% HCl 10% TCA extraction); assay type: in vivo, CD1 mice; details: 5 mg/kg QD, by 63 hours of dosing, iron overloaded mice; ****P<0.0001
Method: (§7) After 20 days of iron loading, a subgroup of mice was sacrificed to confirm iron overload. The remaining iron loaded mice were dosed QD with either the compound of Formula I-42, a small molecule selective ALK2 kinase inhibitor (5 mg/kg) or vehicle. […] Mice were sacrificed 16 hours post the 1st dose (16 hr) and […] post the 3rd dose (63 hr) of the compound of Formula I-42 and livers dissected and weighed.
(§8) Two assays were performed to evaluate tissue iron. In the first assay, non-heme tissue iron was extracted via acid hydrolysis and iron levels determined using the bathophenanthroline disulfonate method. Briefly, 50 mg sections of mouse liver were flash frozen on liquid nitrogen at study termination. Samples were processed by addition of a 30% HCl 10% Trichloroacetic acid mixture and allowed to extract for 20 hours at 65° C. Following extraction, samples were cooled to room temperature and centrifuged briefly. Samples were transferred to a 96-well plate at the appropriate dilution and a chromogen reagent mixture containing bathophenanthrolinedisulfonic acid, thioglycolic acid, and saturated sodium acetate was added. Samples and standards were then read via absorbance at 535 nm on a SpectraMax plate reader immediately. Sample concentrations were determined by linear regression analysis in GraphPad Prism. […] Data are shown as average±SEM. […]

[12] = test system: non-dextran-bound iron content in livers; experiment: Non-dextran-bound liver iron in iron dextran mouse model of iron overload, second assay (10% HCl 10% TCA extraction); assay type: in vivo, CD1 mice; details: 5 mg/kg QD, iron overloaded mice; **P<0.01, ****P<0.0001
Method: as §7
as §8, with “In” for “Two assays were performed to evaluate tissue iron. In”, “second” for “first”, “10%” for “30%”, “containing of” for “containing”, “standards and blanks” for “standards”, “after a brief incubation.” for “immediately.”

[13] = Day 4, MAD first dose level (50 mg daily)
[14] = Day 4, MAD fourth dose level (350 mg daily)
[15] = Day 4, MAD second dose level (100 mg daily)
[16] = Day 4, MAD third dose level (200 mg daily)

COc1cc2c(-c3cnn4cc(N5CCC(N6CCN(C)CC6)CC5)cnc34)ccnc2cc1F [Formula I-11]
peak increase in reticulocyte hemoglobin content ([1]; MAD): 7 days | start of increase in reticulocyte hemoglobin content ([1]; MAD cohorts 1-4, post-dosing): 4 days | effect on reticulocyte hemoglobin content ([1]; repeated administration): increases over baseline in the hemoglobin content of reticulocytes | transferrin saturation mean percent change from baseline [2, 13]: 1.6% | transferrin saturation mean percent change from baseline [2, 14]: 30.1% | transferrin saturation mean percent change from baseline [2, 15]: 1.5% | transferrin saturation mean percent change from baseline [2, 16]: 7.5% | observed PD response (transferrin saturation) ([2]; once-daily doses of 50 mg): not substantially different from placebo | observed PD response (transferrin saturation) ([2]; single dose of 30 mg, liquid formulation): not substantially different from placebo | effect on transferrin saturation ([2]; single or repeated doses of 100 mg or above): sustained, dose-related increases in transferrin saturation | half-life ([3]; both sexes, human, in vivo, oral, approximately): 10 to 15 h | mean AUC and Cmax versus dose ([3]; multiple doses from 50-200 mg): increased linearly with greater than dose-proportional increases | reversibility of lymphopenia ([4]; after the treatment period ended): reversible | development of lymphopenia (lymphocyte counts<1.0×10^9 cells/L) ([4]; repeated oral administration, onward): ≥ 6 day | start of decreases in lymphocyte counts ([4]; repeated oral administration, post treatment, higher doses): 5 days | earliest decrease in hepcidin after first dose ([5]; MAD Cohort 5, 100 mg): 4 h | effect on serum hepcidin versus placebo ([5]; once-daily oral over 7 days, similar at 50 mg, 100 mg and 200 mg): robust decreases in baseline hepcidin | dose level up to which well tolerated ([6]; after 7 daily oral doses): up to 200 mg | AEs reported in >2 treated subjects and higher than placebo ([6]; human, in vivo): headache, nausea, vomiting, diarrhea, gastroenteritis, chills, pyrexia, myalgia, decreased appetite, lymphopenia, neutropenia, abdominal discomfort, abdominal pain (upper), dizziness, fatigue, rhinorrhea, tonsillitis, and liver enzyme increases | AEs that led to study drug discontinuation in three or more participants ([6]; human, in vivo): lymphopenia and chills | participants who discontinued the study due to AEs ([6]; human, in vivo): 10 of 40 (25%) | serious adverse events ([6]; human, in vivo): no serious adverse events | severity of the majority of AEs ([6]; human, in vivo): mild or moderate in severity | subjects who discontinued the study due to AEs ([6]; human, in vivo): none | subjects with increases in ALT>2×ULN ([6]; human, in vivo): 3 | dose level up to which well tolerated ([6]; single oral dose): up to 450 mg | effect on serum ferritin ([7]; MAD cohort participants): decreases were observed in serum ferritin | effect on serum ferritin, single versus multiple doses ([7]; SAD versus MAD): observed only after multiple doses | serum iron mean change from baseline [8, 13]: 1.48 μM/L | serum iron mean change from baseline [8, 14]: 17.71 μM/L | serum iron mean change from baseline [8, 15]: 0.59 μM/L | serum iron mean change from baseline [8, 16]: 5.11 μM/L | serum iron concentrations by Day 7 ([8]; MAD, some participants exhibiting large PD effects on Day 4): returned to baseline or below | time of peak serum iron concentrations ([8]; multiple dose regimen, day of treatment): Day 3 or 4 | effect on serum iron ([8]; single (SAD) or once-daily (MAD) oral administration): rapid, robust, and sustained dose-related increases in serum iron | time of peak serum iron effect ([8]; single dose, Day 2, post-dose): 24 h

COc1cc2c(-c3cnn4cc(N5CC(N6CCN(C)CC6)C5)cnc34)ccnc2cc1F [Formula I-42]
peak serum iron ([9]; at 16 hours, average): 716.31 µg/dL | onset of serum iron increase ([9]; third treatment day): eight hours post-administration | time of peak serum iron ([9]; third treatment day, post-administration): 16 h | effect on serum iron ([9]; third treatment day, wild-type mice): increased serum iron | onset of hepcidin reduction [10]: as soon as four hours post-administration | hepcidin reduction sustained through ([10]; post-administration): 12 h | effect on circulating hepcidin ([10]; wild-type mice): reduced circulating hepcidin levels | effect on liver iron content [11]: reduce liver iron content; also recorded: significantly reduced liver iron content | effect on non-dextran-bound iron content in livers [12]: significantly reduced non-dextran-bound iron content

From patent US12458693B2, “Methods of treating iron overload with a BMP inhibitor” (Keros Therapeutics, Inc., priority 2020, dated 2025)
